Assay results published in patent publication US8927723B2, “Preparation of pyridonecarboxylic acid antibacterials” (AbbVie, Inc., priority 2004, dated 2015).
Converted amounts (≈) assume the structure as drawn.

Assay: solubility of compounds having formula (VII) in ethyl acetate
Conditions: organic solvent or mixture

solubility: 6400 µg/mL (≈ 12.7 mM)
SMILES: CCOC(=O)c1cn(-c2nc(N)c(F)cc2F)c2cc(N3CC(OC(=O)C(C)C)C3)c(F)cc2c1=O [CH(CH3)2, ethyl 1-(6-amino-3,5-difluoropyridin-2-yl)-6-fluoro-7-(3-(isobutyryloxy)azetidin-1-yl)-4-oxo-1,4-dihydroquinoline-3-carboxylate]
